Where “and” joins values, the source holds several entries; their conditions need not be identical. Equal values may be shown once.
Key:
Test in all cases: Microarray gene expression in cardiac tissue of Tempol-fed mice
Type in all cases: in vivo
[1] = system: CD52 antigen (M55561); settings: 5 mg/g of food from 14 to 31 months
Procedure: (§1) To assess the effects of Tempol on gene expression, Tempol was administered to experimental mice at a dose of 5 mg/g of food from 14 months to 31 months after birth. Mice receiving the same food without the addition of Tempol were used as a negative control. At the age of 31 months, the experimental animals were sacrificed and the hearts were surgically removed. The expression of a broad spectrum of genes in the cardiac tissue was assessed using chip-based microarray technology. Such chips are well known in the art and are widely used to assess gene expression.

[2] = system: CD53 antigen (X97227); settings: 5 mg/g of food from 14 to 31 months
Procedure: as §1

[3] = system: Cathepsin B (M65270)
Procedure: as §1

[4] = system: Cyclophilin A (AA116993); settings: 5 mg/g of food from 14 to 31 months
Procedure: as §1

[5] = system: Hsp-90 homolog (W62326); settings: 5 mg/g of food from 14 to 31 months
Procedure: as §1

[6] = system: Immunophilin (FKBP25) (AA120298); settings: 5 mg/g of food from 14 to 31 months
Procedure: as §1

[7] = system: Interferon induced protein (AA013783); settings: 5 mg/g of food from 14 to 31 months
Procedure: as §1

[8] = system: Interferon α-induced 11.5 kd protein (P27) (AA120109); settings: 5 mg/g of food from 14 to 31 months
Procedure: as §1

[9] = system: Interferon γ-inducible protein/IRG 47GTP-binding (M63690); settings: 5 mg/g of food from 14 to 31 months
Procedure: as §1

[10] = system: Interferon-inducible protein (AA002526); settings: 5 mg/g of food from 14 to 31 months
Procedure: as §1

[11] = system: JAK-1 (AA066354)
Procedure: as §1

[12] = system: Lymphocyte receptor/polyubiquitin (W13546); settings: 5 mg/g of food from 14 to 31 months
Procedure: as §1

[13] = system: Selenium-binding protein 2 (M32032); settings: 5 mg/g of food from 14 to 31 months
Procedure: as §1

[14] = system: Serum amyloid A-1 protein precursor (M13521)
Procedure: as §1

[15] = system: Serum amyloid P-component precursor (SAP) (Y00426)
Procedure: as §1

[16] = system: T-cell specific GTPase (U15636); settings: TEMPOL-treated vs control mice, 5 mg/g of food from 14 to 31 months
Procedure: as §1

[17] = cardiac tissue of experimental mice, Table 1

CC1(C)CC(O)CC(C)(C)N1[O] [Tempol, 4-hydroxy-2,2,6,6-tetramethylpiperidine-1-oxyl]
Fold change ([1]; TEMPOL-treated vs control mice): −3.5 fold | Expression, TEMPOL-treated mice (tp51, tp52, tp53) ([1]; individual mice): 106 and 177 and 171 | Fold change ([2]; TEMPOL-treated vs control mice): −2.1 fold | Expression, TEMPOL-treated mice (tp51, tp52, tp53) ([2]; individual mice): 21 and −17 and −13 | Fold change ([3]; M65270, cardiac tissue, TEMPOL-treated vs control mice, 5 mg/g of food from 14 to 31 months): −2.8 fold | Expression, TEMPOL-treated mice (tp51, tp52, tp53) ([3]; M65270, cardiac tissue, individual mice, 5 mg/g of food from 14 to 31 months): −12 and 6 and 13 | expression of cathepsin B reduced ([3]; cardiac tissue of experimental mice, text restating Table 2): 2.8 fold | Fold change ([4]; TEMPOL-treated vs control mice): −2.1 fold | Expression, TEMPOL-treated mice (tp51, tp52, tp53) ([4]; individual mice): 12 and −14 and −10 | Fold change ([5]; TEMPOL-treated vs control mice): −2.4 fold | Expression, TEMPOL-treated mice (tp51, tp52, tp53) ([5]; individual mice): 6 and 16 and 39 | Fold change ([6]; TEMPOL-treated vs control mice): −2.1 fold | Expression, TEMPOL-treated mice (tp51, tp52, tp53) ([6]; individual mice): 200 and 154 and 164 | Fold change ([7]; TEMPOL-treated vs control mice): −4.9 fold | Expression, TEMPOL-treated mice (tp51, tp52, tp53) ([7]; individual mice): −81 and 27 and 41 | Fold change ([8]; TEMPOL-treated vs control mice): −2.3 fold | Expression, TEMPOL-treated mice (tp51, tp52, tp53) ([8]; individual mice): 149 and 88 and 72 | Fold change ([9]; TEMPOL-treated vs control mice): −2.0 fold | Expression, TEMPOL-treated mice (tp51, tp52, tp53) ([9]; individual mice): 29 and 20 and 1 | Fold change ([10]; TEMPOL-treated vs control mice): −2.7 fold | Expression, TEMPOL-treated mice (tp51, tp52, tp53) ([10]; individual mice): 26 and 34 and 36 | Fold change ([11]; AA066354, cardiac tissue, TEMPOL-treated vs control mice, 5 mg/g of food from 14 to 31 months): −5.1 fold | Expression, TEMPOL-treated mice (tp51, tp52, tp53) ([11]; AA066354, cardiac tissue, individual mice, 5 mg/g of food from 14 to 31 months): 124 and 22 and 30 | expression of JAI(-1 reduced) [11, 17]: 5.1 fold | Fold change ([12]; TEMPOL-treated vs control mice): −55.2 fold | Expression, TEMPOL-treated mice (tp51, tp52, tp53) ([12]; individual mice): −16 and −66 and 1331 | Fold change ([13]; TEMPOL-treated vs control mice): −2.1 fold | Expression, TEMPOL-treated mice (tp51, tp52, tp53) ([13]; individual mice): 554 and 600 and 670 | Fold change ([14]; M13521, cardiac tissue, TEMPOL-treated vs control mice, 5 mg/g of food from 14 to 31 months): −2.5 fold | Expression, TEMPOL-treated mice (tp51, tp52, tp53) ([14]; M13521, cardiac tissue, individual mice, 5 mg/g of food from 14 to 31 months): 6 and 1 and 8 | expression of serum amyloid A-1 protein precursor reduced [14, 17]: 2.5 fold | Fold change ([15]; Y00426, cardiac tissue, TEMPOL-treated vs control mice, 5 mg/g of food from 14 to 31 months): −2.8 fold | Expression, TEMPOL-treated mice (tp51, tp52, tp53) ([15]; Y00426, cardiac tissue, individual mice, 5 mg/g of food from 14 to 31 months): 43 and 61 and 119 | expression of serum amyloid P component precursor reduced [15, 17]: 2.8 fold | Fold change [16]: −2.0 fold

From US20090042937A1, “[…] USE IN TREATING OR […]-RELATED DISEASES” (priority 2005, published 2009)
